Assay results taken from patent US11524082B2, “FBSA-based therapeutic and radioimaging conjugates targeting carbonic anhydrase positive cancers” (priority 2017, dated 2022).
Blank lines part the entries; values can stand above or below the compound they belong to.

Experiments:
CAIX [1] = target: T1, CAIX (Homo sapiens, UniProt Q16790); experiment: Binding affinity of CAIX FITC conjugates by flow cytometry in A549 cells; set-up: expressed in transfected cells; settings: FIG. 7
Protocol: (§1) General Procedure for Binding Affinity Determination of CAIX FITC Conjugates
(§2) HEK293 transfected with CAIX, SKRC52, HT29, or A549 cells (0.25×10^6) were placed into 1.5 ml centrifuge tubes with 0.3 mL of fresh DMEM medium containing increasing concentrations of CAIX FITC conjugates in the presence or absence of 100-fold excess CAIX inhibitor (Compound 3, 3-((2-(cyclooctylamino)-3,5,6-trifluoro-4-sulfamoylphenyl)sulfonyl)propanoic acid. After incubating for 1 h at 25° C., cells were rinsed twice with 1 mL of medium. The cells were transferred into a 96-well plate and the mean florescence intensity (MFI) was read using flow cytometry (BD Accuri C6, BD Biosciences). Apparent KD was calculated by plotting MFI versus the concentration of the FITC conjugates using GraphPad Prism 4. For hypoxia experiments, cells were incubated under an atmosphere containing 1% oxygen, 5% carbon dioxide, and 94% nitrogen for 24-48 hours in a hypoxia chamber.

CAIX [2] = target: T1, CAIX; experiment: Binding affinity of CAIX FITC conjugates by flow cytometry in HT-29 cells; set-up: expressed in transfected cells; settings: FIG. 4
Protocol: as §1, §2

CAIX [3] = target: T1, CAIX; experiment: Binding affinity of CAIX FITC conjugates by flow cytometry in SKRC52 cells; set-up: endogenous in cells; host or cells: SKRC52
From the text: as §1

SKRC52 cells = experiment: Fluorescent confocal microscopy of FBSA-PEG2-FITC conjugate in SKRC52 cells; assay type: cell-based, Human; settings: 25 nM conjugate, 1 hour at 37° C.; competition with 100-fold excess Compound 3; FIG. 1
Protocol: Fluorescent Microscopy of FBSA-PEG2-FITC Conjugate, Conjugate 5.
Metastatic Human Renal Cell Carcinoma (SKRC52) cells (10^5) were seeded into chambered coverglass plates and allowed to grow to confluence over 24 hours (hr). Spent medium was replaced with 0.5 mL of fresh medium containing 10% fetal bovine serum albumin and 25 nM concentration of the FITC conjugate, Conjugate 5, alone or the dye conjugate plus 100-fold excess CAIX inhibitor (Compound 3, 3-((2-(cyclooctylamino)-3,5,6-trifluoro-4-sulfamoylphenyl)sulfonyl)propanoic acid). After incubation for 1 hour at 37° C., cells were rinsed twice with 1 mL of media to remove unbound fluorescence and 0.5 ml of fresh incubation medium was added to the wells. Images were acquired using a confocal microscopy (FV 1000, Olympus).

CAIX [4] = target: T1, CAIX; experiment: Binding affinity of CAIX FITC conjugates by flow cytometry in HEK293 transfected with CAIX; set-up: expressed in transfected cells; host or cells: HEK293
From the text: as §1

A549 xenografts [5] = experiment: In vivo efficacy of Conjugate 14 in A549 xenografts; set-up: species or system mice; settings: 1.25 umole/kg TIW for three weeks, FIG. 17
Protocol: (§3) Athymic nu/nu mice were purchased from Harlan Laboratories (ENVIGO), housed in a sterile environment on a standard 12 hour light-dark cycle and maintained on normal rodent chow. All animal procedures were approved by the PURDUE Animal Care and Use Committee in accordance with National Institutes of Health guidelines.
(§4) Cells, HT-29 cells (4.25×10^6) were subcutaneously injected into the shoulders of 5-6 week old female nu/nu mice. Tumors were measured in two perpendicular directions thrice weekly with vernier calipers and their volumes were calculated as 0.5×L×W^2, where L is the longest axis (in millimeters), and W is the axis perpendicular to L (in millimeters). Dosing of Conjugate 12 was initiated when the subcutaneous tumors reached ˜100-275 mm^3 in volume. Dosing solutions were prepared in saline and filtered through a 0.22 μm filter. Solutions were administered via tail vein injection or intraperitoneally. Each mouse received 2 μmol/kg Conjugate 12 per injection. Injections were given every two days and the mice were weighed concurrently.
Similar experiments were performed using Conjugate 14 with A549 cells instead of HT-29 cells (FIGS. 17 and 18).

HT-29 xenografts = experiment: In vivo efficacy of tubulysin conjugates in HT-29 xenograft tumors; set-up: species or system mice
Protocol: as §3
In Vivo Efficacy of Tubulysin Conjugate 12 in HT29 Xenograft Tumors.
as §4, with “Each mouse received 2 μmol/kg Conjugate 12 per injection.” left out, “concurrently. […]” for “concurrently.”

A549 xenografts [6] = system: A549 xenografts; set-up: species or system mice; settings: in vivo
Protocol: (§5) Whole-Body Imaging and Biodistribution of Radiolabeled 17 in Mouse Xenograft Models
(§6) SKRC52, HT29, or A549 cells (˜3×10^6 cells per mouse) were injected subcutaneously into the shoulders of female athymic nu/nu mice. Growth of the tumors was measured in two perpendicular directions and the volumes of the tumors were calculated as 0.5×L×W^2 (L=longest axis and W=axis perpendicular to L in millimeters). Once tumors reached a minimum of 500 mm^3 in volume, animals were injected with radiolabeled Conjugate 17 (250 μCi) in PBS (100 μL, pH 7.4) via tail vein injection. To obtain whole-body images, mice were anesthetized with isoflurane and images were acquired with a Kodak Imaging Station (In-Vivo FX, Eastman Kodak Company) in combination with CCD camera and Kodak molecular imaging software (version 4.0) with the kidneys shielded. Radioimages were acquired using the following parameters: radio isotope illumination source, 3 min acquisition time, f-stop=4, focal plane=5, FOV=160, binning=8. White light images were acquired using the following parameters: white light transillumination illumination source, 0.175 s acquisition time, f-stop=16, focal plane=5, FOV=160, and no binning. After acquiring the whole-body imaging, the mice were sacrificed with CO2 asphyxiation and, following necropsy, the tissues were placed into preweighed γ-counter tubes. The radioactivity of the tissues and a fraction of the injected dose was measured in a γ-counter (Packard, Packard Instrument Company). Count per minute (CPM) values were corrected for decay times, and the results were calculated as percent of the injected dose per gram (% ID/g) of wet tissue.
250 μCi of radiolabeled Conjugate 17 was injected into the tail vein of mice bearing xenografts derived from the A549 cell line. At various time points shown in Table 3, the tissues were removed from the mice (n=1 per time point), weighed, and the radioactivity was quantified on a gamma counter. Because copper-64 emits gamma radiation at 511 keV in 36% abundance, it is possible to use gamma detection methods.

HT29 xenografts = system: HT29 xenografts; set-up: species or system mice; settings: in vivo
Protocol: as §5, §6

SKRC52 xenografts = system: SKRC52 xenografts; set-up: species or system mice; settings: mouse, in vivo
Protocol: as §5, §6

CAIX [7] = target: T1, CAIX; experiment: In vitro binding affinity of radiolabeled Conjugate 17 in SKRC52 cells (gamma counting); set-up: endogenous in cells; host or cells: SKRC52
Protocol: (§7) In Vitro Binding Affinity of Radiolabeled Conjugate 17
(§8) SKRC52, HT29, A549 cells (˜0.25×10^6) were seeded in a 24-well plate and allowed to grow overnight. Fresh medium containing increasing concentrations of radiolabeled Conjugate 17, as prepared in Example 17, in the presence or absence of 100-fold excess FBSA competition compound was added. All concentrations were examined in duplicate or triplicate. After incubating for 1 h at 25° C., cells were washed with PBS (3×0.5 mL). To each well was added 0.5 M NaOH. After 10 min, 0.45 mL of the NaOH was removed and the radioactivity was measured with a γ-counter (Packard, Packard Instrument Company). The apparent binding affinity was calculated by plotting the bound radioactivity versus the concentration of the radiolabeled conjugate with GraphPad Prism 4.

CAIX [8] = target: T1, CAIX; experiment: In vitro binding affinity of radiolabeled Conjugate 17 in A549 cells (gamma counting); set-up: expressed in transfected cells; settings: 64Cu-radiolabeled, 1 h at 25° C., FIG. 10
Protocol: as §7, §8

Compound: NS(=O)(=O)c1c(F)c(F)c(S(=O)(=O)CCC(=O)NCCOCCOCCC(=O)NC(CSC2CC(=O)N(c3ccc(-c4c5ccc(=O)cc-5oc5cc(O)ccc45)c(C(=O)O)c3)C2=O)C(=O)O)c(NC2CCCCCCC2)c1F (stereo not shown) [Conjugate 5, 2-(((1-(3-carboxy-4-(6-hydroxy-3-oxo-3H-xanthen-9-yl)phenyl)-2,5-dioxopyrrolidin-3-yl)thio)methyl)-16-((2-(cyclooctylamino)-3,5,6-trifluoro-4-sulfamoylphenyl)sulfonyl)-4,14-dioxo-7,10-dioxa-3,13-diazahexadecanoic acid]
Kd (CAIX [1]): 6.04 nM
binding with competition by unconjugated inhibitor (CAIX [2]; 100-fold excess unconjugated inhibitor (Compound 3)): bound the cells and competed in the presence of 100-fold excess unconjugated inhibitor
Kd (CAIX [2]): 4.55 nM
Kd (CAIX [3]; SKRC52 cells under hypoxia (1% oxygen, 24-48 hours), FIG. 6, read-out: KD, Hypoxia SKRC52): 4.72 nM
Kd (CAIX [3]; SKRC52 cells without hypoxia, FIG. 6, read-out: binding affinity, Normoxia SKRC52): 4.57 nM
Kd (CAIX [3]; SKRC52 cells, FIG. 3, apparent KD from MFI, 1 h at 25° C., read-out: KD): 1.28 nM
cell binding by confocal microscopy, alone and with excess CAIX inhibitor (SKRC52 cells): bound the cells and were competed in the presence of excess unconjugated inhibitor
Kd (CAIX [4]; HEK293-CA9 cells, FIG. 2 / FIG. 5, apparent KD from MFI, 1 h at 25° C., read-out: KD): 17.9 nM

Compound: N[C@@H](CNC(=O)CCOCCOCCOCCOCCNC(=O)CCS(=O)(=O)c1c(F)c(F)c(S(N)(=O)=O)c(F)c1NC1CCCCCCC1)C(=O)N[C@@H](CC(=O)O)C(=O)N[C@@H](CSC1CC(=O)N(c2ccc(-c3c4ccc(=O)cc-4oc4cc(O)ccc34)c(C(=O)O)c2)C1=O)C(=O)O (stereo partly drawn) [Conjugate 7, 5-(3-(((2R,5S,8S)-8-amino-2-carboxy-5-(carboxymethyl)-29-((2-(cyclooctylamino)-3,5,6-trifluoro-4-sulfamoylphenyl)sulfonyl)-4,7,11,27-tetraoxo-14,17,20,23-tetraoxa-3,6,10,26-tetraazanonacosyl)thio)-2,5-dioxopyrrolidin-1-yl)-2-(6-hydroxy-3-oxo-3H-xanthen-9-yl)benzoic acid]
Kd (CAIX [3]): 4.57 nM
Kd (CAIX [4]): 55.2 nM
binding with competition by unconjugated inhibitor (CAIX [4]; HEK293-CA9 cells, 100-fold excess unconjugated inhibitor (Compound 3), FIG. 5): bound the cells and competed in the presence of 100-fold excess unconjugated inhibitor

Compound: CCCC(=O)OCN(C(=O)[C@@H](NC(=O)C1CCCCN1C)[C@@H](C)CC)[C@H](C[C@@H](OC(C)=O)c1nc(C(=O)N[C@@H](Cc2ccc(O)cc2)C[C@H](C)C(=O)NNC(=O)OCCSSC[C@H](NC(=O)[C@H](CC(=O)O)NC(=O)[C@@H](N)CNC(=O)C(CC(=O)O)NC(=O)C(CCCNC(=N)N)NC(=O)C(CC(=O)O)NC(=O)CCOCCOCCNC(=O)CCS(=O)(=O)c2c(F)c(F)c(S(N)(=O)=O)c(F)c2NC2CCCCCCC2)C(=O)O)cs1)C(C)C (stereo partly shown) [Conjugate 14]
tumor response (A549 xenografts [5]): stable tumor regression and stable disease until treatment cessation
whole body mass, other doses (HT-29 xenografts; HT-29 xenograft mice, 1.5, 1, 0.5, 0.25 μmole/kg, n=1 each, FIG. 14): acceptable body mass profiles
whole body mass, highest dose (HT-29 xenografts; HT-29 xenograft mice, highest dose (2 μmole/kg), n=1, FIG. 14): loss of body mass
tumor reemergence, starting day (HT-29 xenografts; HT-29 xenografts, 1 umole/kg, n=1, FIG. 13): 16 days
tumor response (HT-29 xenografts; HT-29 xenografts, 1.25 umole/kg TIW for three weeks, n=5, FIG. 15): stable tumor regression and stable disease until treatment cessation
tumor response, dose escalation (HT-29 xenografts; HT-29 xenografts, doses 2, 1.5, and 1 umole/kg, n=1 for each dose, FIG. 13): shrank tumors

Compound: NS(=O)(=O)c1c(F)c(F)c(S(=O)(=O)CCC(=O)NCCOCCOCCC(=O)NCCNC(=O)CCC(C(=O)O)N2CCN(CC(=O)O)CCN(CC(=O)O)CC2)c(NC2CCCCCCC2)c1F (stereo not shown) (64Cu complex, metal not drawn) [radiolabeled Conjugate 17]
radiation count at the tumor site, competition mouse versus non-competition mouse (A549 xenografts [6]): much lower radiation count at the tumor site
tumor uptake in whole-body image, targeted versus competition mouse (A549 xenografts [6]): much higher tumor uptake than that of the competition mouse
time of the highest tumor-to-tissue ratio (A549 xenografts [6]; mouse): nine
tumor uptake in whole-body image, targeted versus competition mouse (HT29 xenografts): also demonstrated in mice bearing HT29 xenografts
tumor to tissue background ratios (HT29 xenografts; mouse): not very good
radioactivity at the tumor, with competition control (SKRC52 xenografts): the radioactivity at the tumor was receptor mediated
uptake of removed tumors, targeted versus competition (SKRC52 xenografts): higher tumor uptake in the targeted mouse versus the competition mice

bound radioactivity in competition controls (CAIX [7]; SKRC52 and A549 cells, 100-fold excess of unlabeled FBSA-COOH): significantly less bound radioactivity
concentration reaching saturation of binding (CAIX [7]; SKRC52 and A549 cells, FIGS. 9 and 10): approximately 75 nM
Kd (CAIX [7]; SKRC52 cells, 64Cu-radiolabeled, 1 h at 25° C., FIG. 9): 5.87 nM
Kd (CAIX [8]): 6.04 nM
Compound: NS(=O)(=O)c1c(F)c(F)c(S(=O)(=O)CCC(=O)NCCOCCOCCC(=O)NCCNC(=O)CCC(C(=O)O)N2CCN(CC(=O)O)CCN(CC(=O)O)CC2)c(NC2CCCCCCC2)c1F (stereo not shown) [radiolabeled Conjugate 17]
